Data published in PubChem BioAssay (NCI).
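96-well plates; 48 h exposure; 5 concentrations. Endpoints by linear interpolation between flanking doses. Not reached: highest tested concentration assigned. GI50 is the concentration that inhibits growth by half. TGI: total growth inhibition.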

Legend:
Assay in all cases: NCI tumour cell line growth inhibition, 48 h
SK-MEL-5 melanoma = system: SK-MEL-5 melanoma
RXF 393 renal = system: RXF 393 renal
U251 CNS = system: U251 CNS
SNB-75 CNS = system: SNB-75 CNS
IGROV1 ovarian = system: IGROV1 ovarian
A549 NSCLC = system: A549 NSCLC
M14 melanoma = system: M14 melanoma
UO-31 renal = system: UO-31 renal
NCI-H522 lung = system: NCI-H522 lung

SMILES | TGI (SK-MEL-5 melanoma) | TGI (RXF 393 renal) | TGI (U251 CNS) | TGI (SNB-75 CNS) | TGI (IGROV1 ovarian) | TGI (A549 NSCLC) | TGI (M14 melanoma) | TGI (UO-31 renal) | TGI (NCI-H522 lung) | GI50 (SK-MEL-5 melanoma) | GI50 (RXF 393 renal) | GI50 (SNB-75 CNS) | GI50 (IGROV1 ovarian) | GI50 (UO-31 renal)
CCCCCCCCCCCCCP(=O)(OC)OC | 32.6 µM | 48.4 µM | 32.9 µM | 38.1 µM | 35.5 µM | 36.9 µM | 34.7 µM | 29.8 µM | 26.6 µM |  |  |  |  | 
CC(O)(c1ccc(OCCC[N+](C)(C)C)cc1)C(C)(O)c1ccc(OCCC[N+](C)(C)C)cc1 (centres undefined) |  | > 100 µM | > 100 µM | > 100 µM | > 100 µM | > 100 µM | > 100 µM | > 100 µM | > 100 µM |  |  |  |  | 
O=C(CC1(O)C(=O)Nc2c(Cl)cc(Cl)cc21)c1ccc([N+](=O)[O-])cc1 (centres undefined) | > 57.3 µM | > 100 µM | > 100 µM | > 87.6 µM | > 90.6 µM | > 100 µM | > 55.7 µM | 35.1 µM | 46.4 µM |  |  |  |  | 
Cc1cc(=O)n2c(cc3cccccc32)n1 |  | > 100 µM | > 100 µM | > 100 µM | > 100 µM | > 100 µM | > 100 µM | > 100 µM | > 100 µM |  |  |  |  | 
CSC(=NC(=O)c1ccccc1)SCCSC(=NC(=O)c1ccccc1)SC | > 100 µM | > 100 µM | > 100 µM | > 100 µM | > 100 µM | > 100 µM | > 100 µM | > 100 µM | > 100 µM |  |  |  |  | 
CC(Oc1ccc2c(=O)cc(-c3ccccc3)oc2c1)C(=O)O (centres undefined) | > 100 µM | > 100 µM | > 100 µM | > 100 µM | > 100 µM | > 100 µM | > 100 µM | > 100 µM | > 100 µM |  |  |  |  | 
c1ccc(N2CCN(CCCN3CCc4c([nH]c5ccccc45)C3c3cccnc3)CC2)cc1 (centres undefined) | > 100 µM | > 100 µM | > 31.6 µM | > 100 µM | > 100 µM | > 100 µM | 59.8 µM | > 100 µM | > 100 µM |  |  |  |  | 
Cc1ccc(-c2nc3ccccc3c(=O)n2NC2OC(CO)C(O)C(O)C2O)cc1 (centres undefined) | > 100 µM |  | > 100 µM | > 100 µM | > 100 µM | > 100 µM | > 100 µM | > 100 µM | > 100 µM |  |  |  |  | 
CC1(C)C=C(N2CCN(C3=CC(C)(C)NC(C)(C)C3)CC2)CC(C)(C)N1 | > 100 µM |  | > 100 µM | > 100 µM | > 100 µM | > 100 µM | > 100 µM | > 100 µM | > 100 µM |  |  |  |  | 
CN(CCc1ccccn1)/[N+]([O-])=N/O (tested in a mixture with another compound) | > 100 µM | > 100 µM |  | > 100 µM | > 100 µM | > 100 µM | > 100 µM | > 100 µM |  |  |  |  |  | 
O=C1C(c2ccccc2)=[N+]([O-])c2cc([N+](=O)[O-])ccc21 | 39.2 µM | 34.9 µM | > 100 µM | > 100 µM | 53.5 µM | > 100 µM |  | > 100 µM | 29.1 µM |  |  |  |  | 
CC(=O)CCn1[nH]c(=O)c(Cl)c(Cl)c1=O | > 100 µM | > 100 µM |  | > 100 µM | > 100 µM | > 100 µM | > 100 µM | > 100 µM |  |  |  |  |  | 
COC(=O)/C(=N\Nc1nc(=S)[nH]n1N)C(C#N)c1ccc(Cl)cc1 (centres undefined) |  | > 100 µM | > 100 µM | > 100 µM | > 100 µM | > 100 µM | > 100 µM | > 100 µM |  |  |  |  |  | 
CC1=C(C(=O)Nc2ccccc2C)C(c2ccccc2O)C(C(=O)Nc2ccccc2C)=C(C)N1 | 61.8 µM | 47.3 µM |  | 65.8 µM | 37.5 µM | > 100 µM | 39.8 µM | 38.4 µM |  |  |  |  |  | 
CC(=O)OC(C)(C)C[N+](=O)[O-] |  | > 100 µM | > 100 µM | > 100 µM | > 100 µM | > 100 µM | > 100 µM | > 100 µM | > 100 µM |  |  |  |  | 
O=C(CCN1CCCC1)Nc1ccc2c(Nc3ccc(Br)cc3)c3ccccc3nc2c1 | 2.92 µM | 2.57 µM |  | 2.68 µM | 2.59 µM |  |  | 2.61 µM |  | 1.57 µM | 1.23 µM | 1.37 µM | 1.23 µM | 1.33 µM
COC(=O)/C=C(C)/C=C/c1c(C)c(C(C)=O)c(C)n1C |  |  | > 100 µM |  | > 100 µM | > 100 µM | > 100 µM | > 100 µM | > 100 µM |  |  |  |  | 
CCc1cc2c(Nc3ccccc3)c3c(nc2s1)CCCC3 | > 100 µM | > 100 µM | > 100 µM | 39.1 µM | > 100 µM | > 100 µM | > 100 µM | > 100 µM |  |  |  |  |  | 
Nc1nc(N)c(CCCCc2ccccc2)c(/C=C/c2ccc([N+](=O)[O-])cc2)n1 | 16.3 µM |  | 11.4 µM | 9.87 µM | 20.2 µM | 19.3 µM | 9.24 µM | 8.51 µM | 5.57 µM |  |  |  |  | 
O=C(CO)CC(=O)C(=O)Nc1cccc(C(F)(F)F)c1 |  |  |  | > 100 µM | > 100 µM | > 100 µM | > 100 µM | > 100 µM | > 100 µM |  |  |  |  | 
